Consider 3 molecules from patent publication US20010007020A1, “ANTIBODIES THAT BIND TO THE NIDOGEN-BINDING DOMAIN OF LAMININ, THEIR PRODUCTION AND USE” (HOECHST AKTIENGESELLSCHAFT, priority 1997, published 2001).

For assay [1], the target named is laminin/nidogen binding (radioactively labeled nidogen to laminin P1-coated tubes). The assay can be described thus: coated-tube inhibition assay, simultaneous inhibition. To be noted: simultaneous assay type. The arrangement: species or system human. The method, then:
(§1) The inhibitory activity of the affinity-purified antibodies can be identified by means of a coated-tube assay which measures the binding of radioactively labeled nidogen to (human placental) laminin P1-coated tubes in the presence of the antibodies.
(§2) Recombinantly produced human nidogen (35 μg, for description of the clone and culturing and purification conditions, see Mayer, U. et al. (1995) Eur. J. Biochem. 227:681-686) was dissolved in 250 μl of PBS, and 0.405 mCi (=15 Mbq) of Na iodide (^125I) solution (=1.55 μl, Nordion Europe), 10 μl of 0.5 M Na phosphate, pH 7.4, and 40 μg of chloramine T (N-chloro-4-toluenesulfonamide sodium salt, Merck) in 100 μl of 0.05 M Na phosphate, pH 7.4, were added to the solution. The reaction took place for 60 seconds at room temperature and was stopped by adding a solution of 40 μg of Na metabisulfite (Riedel-de-Haen) in 100 μl of 0.05 M Na phosphate, pH 7.4. This addition was made in at most 30 seconds and 900 μl of 1% BSA (Sigma) in PBS were then added to the mixture. Free radioactivity and excess salts were separated off by means of molecular sieve chromatography using a PD 10 column (Pharmacia). The iodinated nidogen, which was eluted in PBS, was pooled and diluted with 1% BSA/0.05 M Na phosphate/0.01% Na azide, pH 7.4, such that a concentration of 50 ng/ml was obtained. […]
Target sequence in this assay (P11047 773-934 limits assumed, one chain of several): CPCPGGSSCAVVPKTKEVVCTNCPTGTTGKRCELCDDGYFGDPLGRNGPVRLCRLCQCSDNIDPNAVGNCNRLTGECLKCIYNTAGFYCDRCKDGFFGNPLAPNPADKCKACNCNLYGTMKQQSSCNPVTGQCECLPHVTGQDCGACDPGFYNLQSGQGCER

Assay [2] has the same target. The assay can be described thus: coated-tube inhibition assay, sequential inhibition. The arrangement: species or system human. The procedure: as §1, §2
Inhibition assay using “laminin-mimetic” structures (sequential inhibition) 200 μl of iodinated nidogen (approx. 10 ng, approx. 40,000 counts per min) and 200 μl of the inhibitor (e.g. peptides which can be derived from the laminin γ1 III 4 domain) or standards (laminin γ1 III 3-5) were shaken in a reaction vessel at room temperature. […] Finally, the solution was tipped out and the tubes were washed twice with 1 ml of PBS/0.04% Tween 20, after which the bound radioactivity (nidogen) was measured in a gamma counter. The quantity of bound nidogen in the solutions containing inhibitor was related to that of the nidogen when no inhibitor was added. […]

Another assay relates to laminin P1. In words: BIAcore binding kinetics on immobilized laminin P1. As to conditions: 20 μg/ml; matrix with 4000 RU laminin P1. The source says: Biospecific interactions can be monitored on-line using the BIAcore® system from Pharmacia Biosensor. The principle of the measurement is based on an optical phenomenon (surface plasmon resonance) which is affected by the mass which is bound on a gold film. Expressed in simple terms, the system is miniaturized affinity chromatography on a gold sensor surface. The quantity of specifically bound ligand can be depicted visually in the form of a resonance signal (Chaiken, I. et al. (1992) Anal. Biochem. 201:197-201; Karisson, R. et al. (1992) in: Structure of Antigens; (Ed.: van Regenmortel). pp. 127-148; CRC Press, Boca Raton, Fla.)
Laminin P1 was immobilized, at a concentration of 200 μg/ml in 10 mM Na acetate, pH 4.0, on the sensor chip in accordance with the instructions in the user manual. A matrix containing 4000 RU of bound laminin P1 is obtained. A double impulse of in each case 4 μl of 100 mM HCl can be carried out in order to regenerate the affinity matrix.
The fact that it was still not possible to observe any transition to the equilibrium state after 1400 seconds can be an expression of the fact that the specific peptide sequence of laminin P1 which is responsible for binding nidogen was readily available to the antibodies. The antibodies bound to this sequence irrespective of whether it was in the biologically active conformation or in a different conformation. […]
A general note: SPR reads the build-up and loss of mass on a sensor chip optically.

[3] abbreviates: sequential assay type, read-out: IC50% inhibition of laminin/nidogen binding.

Sequence of laminin P1 (P11047 773-934 limits assumed): as the sequence (P11047 773-934 limits assumed, one chain of several) above

For “DNIDPNAVGNL [(1), peptide used for immunization]”, the IC50 in assay [1] is 60 µM; in assay [2] (in the assay described here, shortened incubation times, variant not stated, read-out: IC50%) it was 60 µM; in assay [2] (setting [3]), 60 µM.

With “DNIDPNAVGNLKCIYNTAGFYCDR [(2), peptide used for immunization]”, the IC50 in assay [1] and in assay [2] (setting [3]) was 20 µM throughout.

B1: nidogen: recombinantly produced human nidogen, 160 kDa glycoprotein (protein, UniProt P14543 29-1247, looked up)
Nidogen-1: LSRQELFPFGPGQGDLELEDGDDFVSPALELSGALRFYDRSDIDAVYVTTNGIIATSEPPAKESHPGLFPPTFGAVAPFLADLDTTDGLGKVYYREDLSPSITQRAAECVHRGFPEISFQPSSAVVVTWESVAPYQGPSRDPDQKGKRNTFQAVLASSDSSSYAIFLYPEDGLQFHTTFSKKENNQVPAVVAFSQGSVGFLWKSNGAYNIFANDRESVENLAKSSNSGQQGVWVFEIGSPATTNGVVPADVILGTEDGAEYDDEDEDYDLATTRLGLEDVGTTPFSYKALRRGGADTYSVPSVLSPRRAATERPLGPPTERTRSFQLAVETFHQQHPQVIDVDEVEETGVVFSYNTDSRQTCANNRHQCSVHAECRDYATGFCCSCVAGYTGNGRQCVAEGSPQRVNGKVKGRIFVGSSQVPIVFENTDLHSYVVMNHGRSYTAISTIPETVGYSLLPLAPVGGIIGWMFAVEQDGFKNGFSITGGEFTRQAEVTFVGHPGNLVIKQRFSGIDEHGHLTIDTELEGRVPQIPFGSSVHIEPYTELYHYSTSVITSSSTREYTVTEPERDGASPSRIYTYQWRQTITFQECVHDDSRPALPSTQQLSVDSVFVLYNQEEKILRYALSNSIGPVREGSPDALQNPCYIGTHGCDTNAACRPGPRTQFTCECSIGFRGDGRTCYDIDECSEQPSVCGSHTICNNHPGTFRCECVEGYQFSDEGTCVAVVDQRPINYCETGLHNCDIPQRAQCIYTGGSSYTCSCLPGFSGDGQACQDVDECQPSRCHPDAFCYNTPGSFTCQCKPGYQGDGFRCVPGEVEKTRCQHEREHILGAAGATDPQRPIPPGLFVPECDAHGHYAPTQCHGSTGYCWCVDRDGREVEGTRTRPGMTPPCLSTVAPPIHQGPAVPTAVIPLPPGTHLLFAQTGKIERLPLEGNTMRKTEAKAFLHVPAKVIIGLAFDCVDKMVYWTDITEPSIGRASLHGGEPTTIIRQDLGSPEGIAVDHLGRNIFWTDSNLDRIEVAKLDGTQRRVLFETDLVNPRGIVTDSVRGNLYWTDWNRDNPKIETSYMDGTNRRILVQDDLGLPNGLTFDAFSSQLCWVDAGTNRAECLNPSQPSRRKALEGLQYPFAVTSYGKNLYFTDWKMNSVVALDLAISKETDAFQPHKQTRLYGITTALSQCPQGHNYCSVNNGGCTHLCLATPGSRTCRCPDNTLGVDCIEQK
As to B1, the “bound amount at transition to the saturation phase” value with laminin P1 is 600 RU.
